Laboratory results: ChEMBL document CHEMBL3393044, “Amphirionin-2, a novel linear polyketide with potent cytotoxic activity from a marine dinoflagellate Amphidinium species” (Bioorg Med Chem Lett, 2015)
In brackets after ≈: the same amount, converted by molar mass. Activity calls are given as the source filed them. No cut-off for these calls is given here.

Key:
P388 = assay: Antitumor activity against mouse P388 cells xenografted in CDF1 mouse at 0.5 mg/kg administered on day 1 and day 5 relative to control; type: functional
A549 = assay: Cytotoxicity against human A549 cells after 72 hrs by WST-8 assay; type: functional, cell-based; conditions: A549, 72 h
Homo sapiens = organism: Homo sapiens; assay: Binding affinity to actin (unknown origin) by surface plasmon resonance analysis
[1] = Cytotoxicity against human Caco2 cells after 72 hrs by WST-8 assay; type: functional, cell-based; conditions: Caco-2, 72 h
HeLa = assay: Cytotoxicity against human HeLa cells assessed as growth inhibition at 1 ug/ml after 72 hrs by WST-8 assay; type: functional; conditions: read-out: GI

Activity (Homo sapiens): Active
SMILES: C=CC[C@H](C)[C@@H](O)C[C@@H]1C[C@H]2O[C@H](/C=C(C)/C=C/C[C@H]3C[C@@H]4O[C@@H](/C=C/CCCCC)C[C@@H]4O3)C[C@H]2O1
T/C (P388): 120%
IC50 (A549): 0.6 mg/L (≈ 1.17 µM)
IC50 [1]: 0.1 mg/L (≈ 0.194 µM)
inhibition of growth at 1 µg/mL (HeLa): 20%
